Reference: ChEMBL document CHEMBL1135656, “Molecular docking and 3D-QSAR studies on gag peptide analogue inhibitors interacting with human cyclophilin A” (J Med Chem, 2002)
Starred links: 1 amine or outer side, 2 acyl side, 3 side chain; linkers in the order of their positions; H or OH if unused. Non-standard residues stand in square brackets, D forms with d. Residues, ends and D or L forms follow the SMILES beside them. *: point of attachment. Desaminohistidyl = O=C(CCc1c[nH]cn1)*; X1 = c1ccc(C(CCN*)c2ccccc2)cc1; NHPhenethyl = c1ccc(CCN*)cc1; X2 = O=C(C1CCCC1N[*:1])[*:2]; Isovaleryl = CC(C)CC(=O)*; NHBn = c1ccc(CN*)cc1

Target: Peptidyl-prolyl cis-trans isomerase A (Homo sapiens, UniProt P62937)
Assay: In vitro inhibition of human Cyclophilin A/protein interaction.

Sequence of Peptidyl-prolyl cis-trans isomerase A (P62937 whole entry): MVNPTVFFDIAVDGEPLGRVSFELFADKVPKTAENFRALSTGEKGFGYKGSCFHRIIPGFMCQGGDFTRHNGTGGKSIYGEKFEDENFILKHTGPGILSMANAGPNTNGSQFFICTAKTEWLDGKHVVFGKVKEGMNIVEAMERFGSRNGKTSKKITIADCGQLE

Row | Compound | IC50 [µM]
1 | CC(=O)N[C@H](C(=O)N[C@@H](Cc1c[nH]cn1)C(=O)N[C@@H](C)C(=O)NCC(=O)N1CCC[C@@H]1C(=O)N[C@@H](C(=O)N[C@@H](C)C(N)=O)c1ccccc1)C(C)C | 820
2 | CC(=O)N[C@H](C(=O)N[C@@H](Cc1c[nH]cn1)C(=O)N[C@@H](C)C(=O)NCC(=O)N1CCC[C@@H]1C(=O)N[C@H](C(=O)N[C@@H](C)C(N)=O)c1ccccc1)C(C)C | 970
3 | CC[C@H](C)[C@H](NC(=O)[C@@H]1CCCN1C(=O)CNC(=O)[C@H](C)NC(=O)[C@H](Cc1c[nH]cn1)NC(=O)[C@@H](NC(C)=O)C(C)C)C(=O)NCCc1ccccc1 (Ac-VHAGPI-NHPhenethyl) | 325
4 | CC(=O)N[C@H](C(=O)N[C@@H](Cc1c[nH]cn1)C(=O)N[C@@H](C)C(=O)NCC(=O)N1CCC[C@H]1C(=O)NC1CCCC1C(=O)N[C@@H](C)C(N)=O)C(C)C (some centres undefined) (Ac-VHAGP[X2]A-NH2) | 680
5 | CC[C@H](C)[C@H](NC(=O)[C@@H]1CCCN1C(=O)CNC(=O)[C@H](C)NC(=O)CCc1cnc[nH]1)C(=O)N[C@@H](C)C(N)=O (Desaminohistidyl-AGPIA-NH2) | 2600
6 | CC[C@H](C)[C@H](NC(=O)[C@@H]1CCCN1C(=O)CNC(=O)[C@H](C)NC(=O)[C@H](Cc1cnc[nH]1)NC(=O)CC(C)C)C(=O)N[C@@H](C)C(N)=O (Isovaleryl-HAGPIA-NH2) | 165

Results, then the compound that gave them:

Row | IC50 [µM] | Compound
7 | 365 | CC[C@H](C)[C@H](NC(=O)[C@@H]1CCCN1C(=O)CNC(=O)[C@H](C)NC(=O)[C@H](Cc1cnc[nH]1)NC(=O)[C@@H](NC(C)=O)C(C)C)C(=O)NCCC(c1ccccc1)c1ccccc1 (Ac-VHAGPI-X1)
8 | 90 | CC(C)CC(=O)N[C@@H](Cc1cnc[nH]1)C(=O)N[C@@H](C)C(=O)NCC(=O)N1CCC[C@H]1C(=O)NC1CCCC1C(=O)NCc1ccccc1 (some centres undefined) (Isovaleryl-HAGP[X2]-NHBn)
9 | 2000 | H-HAGPIA-OH
